In patent publication US20070128217A1 (priority 2003, published 2007):

Key:
[1] = tested on: antibodies in sera from SARS patients (sera 1a, 1b, 2, 6, 37, 62, London, SARS-yellow, SARS-green); type: binding, human; design: Binding of serum 6 to linear peptides of protein X1 of SARS-CoV Urbani / Binding of serum 37 to linear peptides of protein X1 of SARS-CoV Urbani / Binding of serum 6 to looped/cyclic peptide (PEPSCAN-ELISA) / Binding of serum 37 to looped/cyclic peptide (PEPSCAN-ELISA) / Binding of serum 37 to looped/cyclic peptides of protein X1 of SARS-CoV Urbani / Binding of serum 6 to linear peptides of protein X2 / Binding of serum 37 to linear peptides of protein X2 / Binding of serum 37 to looped/cyclic peptides of protein X2 of SARS-CoV Urbani / Binding of serum 6 to linear peptides of protein M of SARS-CoV Urbani / Binding of serum 37 to linear peptides of protein M of SARS-CoV Urbani / Binding of serum 6 to looped/cyclic peptides of protein M of SARS-CoV Urbani / Binding of serum 37 to looped/cyclic peptides of protein M of SARS-CoV Urbani / Binding of serum 6 to linear peptides of protein X3 of SARS-CoV Urbani / Binding of serum 37 to linear peptides of protein X3 of SARS-CoV Urbani / Binding of serum 37 to looped/cyclic peptides of protein X3 of SARS-CoV Urbani / Binding of serum 6 to linear peptides of protein X4 of SARS-CoV Urbani / Binding of serum 37 to linear peptides of protein X4 of SARS-CoV Urbani / Binding of serum 37 to looped/cyclic peptides of protein X4 of SARS-CoV Urbani / Binding of serum 6 to linear peptides of protein X5 of SARS-CoV Urbani / Binding of serum 37 to linear peptides of protein X5 of SARS-CoV Urbani / Binding of serum 37 to looped/cyclic peptides of protein X5 of SARS-CoV Urbani / Binding of serum 6 to linear peptides of protein N of SARS-CoV Urbani / Binding of serum 37 to linear peptides of protein N of SARS-CoV Urbani / Binding of serum 6 to linear peptide (PEPSCAN-ELISA) / Binding of serum 1a to looped/cyclic peptides of protein N of SARS-CoV Urbani / Binding of serum 1b to looped/cyclic peptides of protein N of SARS-CoV Urbani / Binding of serum 2 to looped/cyclic peptides of protein N of SARS-CoV Urbani / Binding of serum 6 to looped/cyclic peptides of protein N of SARS-CoV Urbani / Binding of serum 37 to looped/cyclic peptides of protein N of SARS-CoV Urbani / Binding of serum 62 to looped/cyclic peptides of protein N of SARS-CoV Urbani / Binding of serum London to looped/cyclic peptides of protein N of SARS-CoV Urbani / Binding of serum SARS-green to looped/cyclic peptides of protein N of SARS-CoV Urbani: unit not given here
[2] = tested on: control sera (pooled serum of ten healthy LUMC hospital workers; commercial negative donor pooled serum from the Dutch bloodbank); type: binding, human; design: Binding of Control serum LUMC to linear peptides / Binding of Control serum Blood-bank to linear peptides / Binding of Control serum LUMC to looped peptides / Binding of Control Serum Blood-Bank to Looped peptides / Binding of Control serum LUMC to linear peptides of the protein M of SARS-CoV Urbani / Binding of Control serum Blood-bank to linear peptides of the protein M of SARS-CoV Urbani / Binding of Control serum LUMC to looped peptides of the protein M of SARS-CoV Urbani / Binding of Control Serum Blood-Bank to Looped peptides of the protein M of SARS-CoV Urbani: unit not given here
[3] = tested on: rabbit serum obtained by immunizing a rabbit with the SARS-CoV strain Frankfurt 1; type: binding; design: Binding of a rabbit serum to linear peptides / Binding of a rabbit serum to looped peptides / Rabbit serum linear peptides / Rabbit serum looped peptides / Binding of a rabbit serum to linear peptides of protein N of SARS-CoV Urbani (Rabbit serum linear peptides) / Binding of a rabbit serum to looped/cyclic peptides of protein N of SARS-CoV Urbani (Rabbit serum looped peptides): unit not given here

## LVIGAVIIRGHLRMA
[1]
  Binding of serum 1a to linear peptides of protein M of SARS-CoV Urbani: 0.7
  Binding of serum 1a to looped/cyclic peptides of protein M of SARS-CoV Urbani: 0.8
  Binding of serum 1b to linear peptides of protein M of SARS-CoV Urbani: 0.5
  Binding of serum 1b to looped/cyclic peptides of protein M of SARS-CoV Urbani: 0.4
  Binding of serum 2 to linear peptides of protein M of SARS-CoV Urbani: 0.5
  Binding of serum 2 to looped/cyclic peptides of protein M of SARS-CoV Urbani: 0.8
  Binding of serum 6 to linear peptides of protein M of SARS-CoV Urbani: 0.6
  Binding of serum 6 to looped/cyclic peptides of protein M of SARS-CoV Urbani: 1.2
  Binding of serum 37 to linear peptides of protein M of SARS-CoV Urbani: 0.4
  Binding of serum 37 to looped/cyclic peptides of protein M of SARS-CoV Urbani: 0.7
  Binding of serum 62 to linear peptides of protein M of SARS-CoV Urbani: 0.4
  Binding of serum 62 to looped/cyclic peptides of protein M of SARS-CoV Urbani: 0.8
  Binding of serum London to linear peptides of protein M of SARS-CoV Urbani: 0.3
  Binding of serum SARS-green to linear peptides of protein M of SARS-CoV Urbani: 0.4
  Binding of serum SARS-green to looped/cyclic peptides of protein M of SARS-CoV Urbani: 0.3
  Binding of serum SARS-yellow to linear peptides of protein M of SARS-CoV Urbani: 0.3
  Binding of serum SARS-yellow to looped/cyclic peptides of protein M of SARS-CoV Urbani: 0.7
[2]
  Binding of Control Serum Blood-Bank to Looped peptides of the protein M of SARS-CoV Urbani: 0.7
  Binding of Control serum Blood-bank to linear peptides of the protein M of SARS-CoV Urbani: 0.6
  Binding of Control serum LUMC to linear peptides of the protein M of SARS-CoV Urbani: 0.7
  Binding of Control serum LUMC to looped peptides of the protein M of SARS-CoV Urbani: 0.7
[3]
  Rabbit serum linear peptides: 0.2
  Rabbit serum looped peptides: 1.4

## LVIGVAFLAVFQSAT
[1]
  Binding of serum 1a to linear peptides of protein X1 of SARS-CoV Urbani: 0.7
  Binding of serum 1a to looped/cyclic peptide (PEPSCAN-ELISA): 0.8
  Binding of serum 1b to linear peptides of protein X1 of SARS-CoV Urbani: 0.6
  Binding of serum 1b to looped/cyclic peptide (PEPSCAN-ELISA): 0.6
  Binding of serum 2 to linear peptides of protein X1 of SARS-CoV Urbani: 0.6
  Binding of serum 2 to looped/cyclic peptide (PEPSCAN-ELISA): 0.7
  Binding of serum 6 to linear peptides of protein X1 of SARS-CoV Urbani: 0.4
  Binding of serum 6 to looped/cyclic peptide (PEPSCAN-ELISA): 0.7
  Binding of serum 37 to linear peptides of protein X1 of SARS-CoV Urbani: 0.6
  Binding of serum 37 to looped/cyclic peptide (PEPSCAN-ELISA): 0.8
  Binding of serum 62 to linear peptides of protein X1 of SARS-CoV Urbani: 0.6
  Binding of serum 62 to looped/cyclic peptide (PEPSCAN-ELISA): 1.0
  Binding of serum London to linear peptides of protein X1 of SARS-CoV Urbani: 0.3
  Binding of serum London to looped/cyclic peptide (PEPSCAN-ELISA): 0.3
  Binding of serum SARS-green to linear peptides of protein X1 of SARS-CoV Urbani: 0.3
  Binding of serum SARS-green to looped/cyclic peptide (PEPSCAN-ELISA): 0.5
  Binding of serum SARS-yellow to linear peptides of protein X1 of SARS-CoV Urbani: 0.4
  Binding of serum SARS-yellow to looped/cyclic peptide (PEPSCAN-ELISA): 0.7
[2]
  Binding of Control Serum Blood-Bank to Looped peptides: 1.1
  Binding of Control serum Blood-bank to linear peptides: 0.6
  Binding of Control serum LUMC to linear peptides: 0.6
  Binding of Control serum LUMC to looped peptides: 1.0
[3]
  Binding of a rabbit serum to linear peptides: 0.3
  Binding of a rabbit serum to looped peptides: 1.2
